Measurements taken from PubChem BioAssay AID1963834 (Molecular Pharmacology Branch, DTP, NCI, 2024).

Tested on: 873145-292-R-J1-PDC complex spheroid viability
Assay: Anticancer human tumor 873145-292-R-J1-PDC patient-derived renal clear cell carcinoma cell line growth inhibition [POLQ]
Conditions: for IC50: curve of first compound; for viability, T/C: stronger effect = lower value; active = viability on the fitted dose curve at most 10% of control; inactive = the rest
Protocol: Multicellular complex tumor spheroid response to Polymerase (POL) inhibitors (novobiocin, ART-558, RP6685) in combination with a variety of drugs and investigational agents in selected tumor cell lines
The POL inhibitors (novobiocin, ART-558, and RP6685) were evaluated both individually and in combination with standard of care and investigational anticancer small molecules within a complex spheroid model of solid tumors. . Complex spheroids include a stromal component modeled by human endothelial cells (HUVEC) and fibroblasts modeled by human mesenchymal stem cells (MSCs). The concentration ranges selected for each drug and investigational agent were based upon clinically achievable concentrations if the clinical Cmax of the agent was known.
Compounds. The drugs and investigational agents: novobiocin (NSC847541), ART-558 (NSC835418), RP-6685 (NSC848927), peposertib (NSC802822), ceralasertib (NSC780249), elimusertib (NSC800525), camonsertib (NSC841442), AZD-1390 (NSC803789), olaparib (NSC753686), talazoparib (NSC767125), rucaparib (NSC756644), sotorasib (NSC818433), MRTX-1133 (NSC836407), SN-38 (NSC673596), topotecan (NSC609699), epotoside (NSC141540), doxorubicin (NSC123127), gemcitabine (NSC613327), 5-fluorouracil (NSC19893), paclitaxel (NSC125973), vemurafenib (NSC761431), MSA-2 (NSC828583), SN-011 (NSC837082), adavosertib (NSC754352), prexasertib (NSC758257), carboplatin (NSC241240) and oxaliplatin (NSC266046), were obtained from the National Cancer Institute (NCI) Developmental Therapeutics Program Chemical Repository (21). The FDA-approved anticancer drug set is available from the Developmental Therapeutics Program at https://dtp.cancer.gov/organization/dscb/obtaining/. […] The stock solutions were prepared in dimethyl sulfoxide (DMSO, Sigma-Aldrich, St. Louis, MO, cat. D2650), except for the platinum compounds which were prepared in saline (Quality Biological, Gaithersburg, MD, cat. 114-055-101), at 800-fold the tested concentration and stored at -70 degrees C prior to their use. All drugs and investigational agents were tested over a range starting from a high concentration at or near the clinical Cmax and decreasing in half-log increments. If the clinical Cmax for an agent had not been determined, the highest concentration tested was 10 microM, except for SN-38, which was tested at a high concentration of 1 microM.
Cell Culture. All cells were maintained in an incubator at 37 degrees C and 5% CO2 with 95% humidity. The PDC lines were cultured according to standard operating procedures established by the NCI PDMR (https://pdmr.cancer.gov). Table 3 of the manuscript, lists the cell lines along with the number of the three cell types plated to form the mct-spheroids and media for tumor cell growth. After thawing, all PDC lines, except 997537-175-T-J1-PDC and 415267-285-R-J2-PDC, were cultured in Matrigel-coated flasks prepared with a working solution of 1X Ham's F-12 nutrient mix, without supplementation (Thermo Fisher Scientific, cat. 11765054), 100 U/mL penicillin-streptomycin (Thermo Fisher Scientific, cat. 15140122), and 2.5% Matrigel (Corning Inc., Corning, NY, cat. 354248) for the first three passages. The two PDC lines 997537-175-T-J1-PDC and 415267-285-R-J2-PDC were cultured on uncoated flasks. The 857933-349-R-J2-PDC line was cultured in 6C/Colon 1B media containing advanced DMEM/F-12 (Thermo Fisher Scientific, cat. 12634028), 10 mM HEPES (Thermo Fisher Scientific, cat. 15630080), 1X GlutaMAX supplement (Thermo Fisher Scientific, cat. 35050061), 0.1 mg/mL primocin (InvivoGen, San Diego, CA, cat. ant-pm-2), 10% defined fetal bovine serum, heat inactivated (HyClone Laboratories Inc., Logan, UT, cat. SH30070.03HI), 50% L-WRN conditioned media (ATCC, cat. CRL-3276), 1.25 mM N-Acetyl-L-cysteine (Sigma-Aldrich, cat. A9165), 10 mM nicotinamide (Sigma-Aldrich, cat. N0636), 1X B-27 supplement (Thermo Fisher Scientific, cat. 17504044), 1X N-2 supplement (Thermo Fisher Scientific, cat. […]
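Also: spheroids exposed to compounds for 7 days before viability readout.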
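For viability, T/C in this document: luminescence signal used as surrogate for viable cell content.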

Nc1ccn(C2OC(CO)C(O)C2(F)F)c(=O)n1 (configuration not stated) + COC1C(OC(N)=O)C(O)C(Oc2ccc3c(O)c(NC(=O)c4ccc(O)c(CC=C(C)C)c4)c(=O)oc3c2C)OC1(C)C
1090 nM: IC50 (second compound 0.1 µM)
360 nM: IC50 (second compound 3.16 µM)
243 nM: IC50 (second compound 0.316 µM)
inactive: viability, T/C (second compound 0.0316 µM, first compound 0.0316 µM) 59.6% | viability, T/C (second compound 0.0316 µM, first compound 0.1 µM) 46.6% | viability, T/C (second compound 0.0316 µM, first compound 0.316 µM) 52.2% | viability, T/C (second compound 0.0316 µM, first compound 1 µM) 46.5% | viability, T/C (second compound 0.0316 µM, first compound 3.16 µM) 54.8% | viability, T/C (second compound 0.0316 µM, first compound 10 µM) 50.9% | viability, T/C (second compound 0.1 µM, first compound 0.0316 µM) 51.2% | viability, T/C (second compound 0.1 µM, first compound 0.1 µM) 57.5% | viability, T/C (second compound 0.1 µM, first compound 0.316 µM) 53.7% | viability, T/C (second compound 0.1 µM, first compound 1 µM) 44.2% | viability, T/C (second compound 0.1 µM, first compound 3.16 µM) 51% | viability, T/C (second compound 0.1 µM, first compound 10 µM) 43.5% | viability, T/C (second compound 0.316 µM, first compound 0.0316 µM) 60.8% | viability, T/C (second compound 0.316 µM, first compound 0.1 µM) 52.9% | viability, T/C (second compound 0.316 µM, first compound 0.316 µM) 47.8% | viability, T/C (second compound 0.316 µM, first compound 1 µM) 48.3% | viability, T/C (second compound 0.316 µM, first compound 3.16 µM) 51.4% | viability, T/C (second compound 0.316 µM, first compound 10 µM) 46% | viability, T/C (second compound 1 µM, first compound 0.0316 µM) 57.8% | viability, T/C (second compound 1 µM, first compound 0.1 µM) 54.8% | viability, T/C (second compound 1 µM, first compound 0.316 µM) 52.7% | viability, T/C (second compound 1 µM, first compound 1 µM) 48.8% | viability, T/C (second compound 1 µM, first compound 3.16 µM) 49.6% | viability, T/C (second compound 1 µM, first compound 10 µM) 48.4% | viability, T/C (second compound 3.16 µM, first compound 0.0316 µM) 61.7% | viability, T/C (second compound 3.16 µM, first compound 0.1 µM) 60.2% | viability, T/C (second compound 3.16 µM, first compound 0.316 µM) 50.3% | viability, T/C (second compound 3.16 µM, first compound 1 µM) 43.6% | viability, T/C (second compound 3.16 µM, first compound 3.16 µM) 50.7% | viability, T/C (second compound 3.16 µM, first compound 10 µM) 52.5% | viability, T/C (second compound 10 µM, first compound 0.0316 µM) 59.2% | viability, T/C (second compound 10 µM, first compound 0.1 µM) 52.4% | viability, T/C (second compound 10 µM, first compound 0.316 µM) 52.2% | viability, T/C (second compound 10 µM, first compound 1 µM) 45.6% | viability, T/C (second compound 10 µM, first compound 3.16 µM) 53.6% | viability, T/C (second compound 10 µM, first compound 10 µM) 53.1%
> 10000 nM: IC50 (second compound 0.0316 µM) | IC50 (second compound 10 µM)
1280 nM: IC50 (second compound 1 µM)
